Source: patent US9695155B2, “Herbicidal substituted pyrimidinyloxy benzene compounds” (E. I. DU PONT DE NEMOURS AND COMPANY, priority 2013, dated 2017)

How the values were obtained:
dayflower = test: Test F preemergence; type: in vivo, Commelina virginica; conditions: 21 days, scale 0 to 100
In short: (§1)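 Greenhouse test: soil (loam with sand) seeded, then sprayed preemergence using a surfactant-containing non-phytotoxic solvent formulation. At day 21, response judged visually relative to controls, where 0 means no effect and 100 means full control.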

chickweed = test: Test F preemergence; type: in vivo, Stellaria media; conditions: 21 days, scale 0 to 100
Source text: (§2) Seeds of plant species selected from bermudagrass (Cynodon dactylon), surinam grass (Brachiaria decumbens), large (Lg) crabgrass (Digitaria sanguinalis), crabgrass, naked (naked crabgrass, Digitaria nuda), foxtail, green (green foxtail, Setaria viridis), johnsongrass (Sorghum halepense), kochia (Kochia scoparia), morningglory (pitted morningglory, Ipomoea lacunosa), nutsedge, purple (purple nutsedge, Cyperus rotundus), ragweed (common ragweed, Ambrosia elatior), mustard, black (black mustard, Brassica nigra), guineagrass (Panicum maximum), dallisgrass (Paspalum dilatatum), barnyardgrass (Echinochloa crus-galli), sandbur (southern sandbur, Cenchrus echinatus), sowthistle (common sowthistle, Sonchus oleraceous), Italian ryegrass (Lolium multiflorum), signalgrass (broadleaf signalgrass, Brachiaria platyphylla), dayflower (Virginia (VA) dayflower, Commelina virginica), bluegrass (annual bluegrass, Poa annua), quackgrass (Elytrigia repens), mallow (common mallow, Malva sylvestris), buckwheat, wild (wild buckwheat, Polygonum convolvulus), leafy spurge (Euphorbia esula), chickweed (common chickweed, Stellaria media), wild poinsettia (Euphorbia heterophylla), and pigweed (Amaranthus retroflexus) were planted into a blend of loam soil and sand and treated preemergence with test chemicals formulated in a non-phytotoxic solvent mixture which included a surfactant.
(§3) Treated plants and controls were maintained in a greenhouse for 21 days, after which time all species were compared to controls and visually evaluated. Plant response ratings, summarized in Table F, are based on a scale of 0 to 100 where 0 is no effect and 100 is complete control. A dash (-) response means no test result.

signalgrass = test: Test F preemergence; type: in vivo, Brachiaria platyphylla; conditions: 21 days, scale 0 to 100
Source text: as §2, §3

ragweed [1] = test: Test E postemergence; type: in vivo, Ambrosia elatior
Source text: Seeds of plant species selected from corn (Zea mays), soybean (Glycine max), velvetleaf (Abutilon theophrasti), lambsquarters (Chenopodium album), wild poinsettia (Euphorbia heterophylla), palmer pigweed (Amaranthus palmeri), waterhemp (common waterhemp, Amaranthus rudis), surinam grass (Brachiaria decumbens), large (Lg) crabgrass (Digitaria sanguinalis), Brazilian crabgrass (Digitaria horizontalis), fall panicum (Panicum dichotomiflorum), giant foxtail (Setaria faberii), green foxtail (Setaria viridis), goosegrass (Eleusine indica), johnsongrass (Sorghum halepense), ragweed (common ragweed, Ambrosia elatior), barnyardgrass (Echinochloa crus-galli), sandbur (southern sandbur, Cenchrus echinatus), arrowleaf sida (Sida rhombifolia), Italian ryegrass (Lolium multiflorum), dayflower (Virginia (VA) dayflower, Commelina virginica), field bindweed (Convolvulus arvensis), morningglory (Ipomoea coccinea), nightshade (eastern black nightshade, Solanum ptycanthum), kochia (Kochia scoparia), yellow nutsedge (Cyperus esculentus), cocklebur (common cocklebur, Xanthium strumarium), smartweed (ladysthumb smartweed, and hairy beggarticks (Bidens pilosa), were planted into a silt loam soil and treated preemergence with test chemicals formulated in a non-phytotoxic solvent mixture which included a surfactant.
At the same time, plants from these crop and weed species and also horseweed (Canada horseweed, Conyza canadensis), waterhemp_RES1, (ALS & Triazine resistant common waterhemp, Amaranthus rudis), and waterhemp_RES2, (ALS & HPPD resistant common waterhemp, Amaranthus rudis) were planted in pots containing Redi-Earth® planting medium (Scotts Company, 14111 Scottslawn Road, Marysville, Ohio 43041) comprising spaghnum peat moss, vermiculite, wetting agent and starter nutrients were treated with postemergence applications of test chemicals formulated in the same manner. Plants ranged in height from 2 to 18 cm for postemergence treatments (1- to 4-leaf stage). Treated plants and controls were maintained in a greenhouse for 14 to 21 days, after which time all species were compared to controls and visually evaluated. Plant response ratings, summarized in Table E, are based on a scale of 0 to 100 where 0 is no effect and 100 is complete control. A dash (-) response means no test result.

ragweed [2] = test: Test F preemergence; type: in vivo, Ambrosia elatior; conditions: 21 days, scale 0 to 100
In short: as §1

sowthistle = test: Test F preemergence; type: in vivo, Sonchus oleraceous; conditions: 21 days, scale 0 to 100
Source text: as §2, §3

winter barley = test: Test D preemergence; type: in vivo, Hordeum vulgare; conditions: Hordeum vulgare, pre-emergence, scale 0-100, read-out: Plant response rating, Barley, Winter
In short: (§4)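 After treatment, visual injury versus untreated plants, 0–100 scale, assessed at 7 to 21 days. Applications were made preemergence to silt loam-sown seed and postemergence to seedlings 2–18 cm high in potting medium.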

spring barley = test: Test D preemergence; type: in vivo, Hordeum vulgare; conditions: Hordeum vulgare, pre-emergence, scale 0-100, read-out: Plant response rating, Barley, Spring
In short: as §4

[3] = Postemergence, 31 g ai/ha, scale 0 to 100
[4] = Postemergence, 62 g ai/ha, scale 0 to 100
[5] = Postemergence, 125 g ai/ha, scale 0 to 100
[6] = postemergence, 16 g ai/ha, scale 0 to 100, 0 no effect, 100 complete control

N#Cc1cccc(Oc2ncc(F)cn2)c1-n1cc(C(F)(F)F)cn1 [Compound 79, 3-[(5-fluoro-2-pyrimidinyl)oxy]-2-[4-(trifluoromethyl)-1H-pyrazol-1-yl]benzonitrile]
Plant response rating, Dayflower, VA (dayflower; 16 g ai/ha): 95
Plant response rating, Dayflower, VA (dayflower; 31 g ai/ha): 98
Plant response rating, Dayflower, VA (dayflower; 62 g ai/ha): 100
Plant response rating, Dayflower, VA (dayflower; 125 g ai/ha): 100
Plant response rating, Dayflower, VA (dayflower; 250 g ai/ha): 100
Plant response rating, Chickweed (chickweed; 16 g ai/ha): 98
Plant response rating, Chickweed (chickweed; 31 g ai/ha): 100
Plant response rating, Chickweed (chickweed; 62 g ai/ha): 100
Plant response rating, Chickweed (chickweed; 125 g ai/ha): 100
Plant response rating, Chickweed (chickweed; 250 g ai/ha): 100
Plant response rating, Signalgrass (signalgrass; 16 g ai/ha): 98
Plant response rating, Signalgrass (signalgrass; 31 g ai/ha): 100
Plant response rating, Signalgrass (signalgrass; 62 g ai/ha): 100
Plant response rating, Signalgrass (signalgrass; 125 g ai/ha): 100
Plant response rating, Signalgrass (signalgrass; 250 g ai/ha): 100
Plant response rating, Ragweed (ragweed [1]; [3]): 40
Plant response rating, Ragweed (ragweed [1]; [4]): 50
Plant response rating, Ragweed (ragweed [1]; [5]): 60
Plant response rating, Ragweed (ragweed [1]; [6]): 30
Plant response rating, Ragweed (ragweed [2]; 16 g ai/ha): 25
Plant response rating, Ragweed (ragweed [2]; 31 g ai/ha): 70
Plant response rating, Ragweed (ragweed [2]; 62 g ai/ha): 98
Plant response rating, Ragweed (ragweed [2]; 125 g ai/ha): 100
Plant response rating, Ragweed (ragweed [2]; 250 g ai/ha): 100
Plant response rating, Sowthistle (sowthistle; 16 g ai/ha): 100
Plant response rating, Sowthistle (sowthistle; 31 g ai/ha): 100
Plant response rating, Sowthistle (sowthistle; 62 g ai/ha): 100
Plant response rating, Sowthistle (sowthistle; 125 g ai/ha): 100
Plant response rating, Sowthistle (sowthistle; 250 g ai/ha): 100

N#Cc1cccc(Oc2ncc(Cl)cn2)c1-n1cc(Br)cn1 [Compound 52, 2-(4-bromo-1H-pyrazol-1-yl)-3-[(5-chloro-2-pyrimidinyl)oxy]benzonitrile]
Plant response rating, Ragweed (ragweed [1]; [3]): 50
Plant response rating, Ragweed (ragweed [1]; [4]): 55
Plant response rating, Ragweed (ragweed [1]; [5]): 60
Plant response rating, Ragweed (ragweed [1]; [6]): 40
plant injury at 31 g/ha (winter barley; 31 g ai/ha): 0%
plant injury at 62 g/ha (winter barley; 62 g ai/ha): 0%
plant injury at 125 g/ha (winter barley; 125 g ai/ha): 5%
plant injury at 250 g/ha (winter barley; 250 g ai/ha): 35%
plant injury at 31 g/ha (spring barley; 31 g ai/ha): 5%
plant injury at 62 g/ha (spring barley; 62 g ai/ha): 10%
plant injury at 125 g/ha (spring barley; 125 g ai/ha): 10%
plant injury at 250 g/ha (spring barley; 250 g ai/ha): 50%
